Results published in paper PMC5515969, “Effects of 31 FDA approved small-molecule kinase inhibitors on isolated rat liver mitochondria” (Archives of Toxicology, 2016).
Like-named read-outs stand apart in the source and are kept apart here.

Columns and labels:
[1] = target: T1, RCC II (Rattus norvegicus, UniProt P21913+Q641Z9+Q6PCT8+Q920L2); experiment: RCC II activity in submitochondrial particles; assay type: biochemical; set-up: key: activity relative to DMSO-treated controls (control set as 1 = 100%); conditions: relative to DMSO treated samples
T1 construct: Submitochondrial particles were prepared by subjecting the intact mitochondria to three successive freeze–thaw cycles; from tissue; host or cells: rat liver mitochondria, used as submitochondrial particles
T1 sequence (Q920L2 35-656): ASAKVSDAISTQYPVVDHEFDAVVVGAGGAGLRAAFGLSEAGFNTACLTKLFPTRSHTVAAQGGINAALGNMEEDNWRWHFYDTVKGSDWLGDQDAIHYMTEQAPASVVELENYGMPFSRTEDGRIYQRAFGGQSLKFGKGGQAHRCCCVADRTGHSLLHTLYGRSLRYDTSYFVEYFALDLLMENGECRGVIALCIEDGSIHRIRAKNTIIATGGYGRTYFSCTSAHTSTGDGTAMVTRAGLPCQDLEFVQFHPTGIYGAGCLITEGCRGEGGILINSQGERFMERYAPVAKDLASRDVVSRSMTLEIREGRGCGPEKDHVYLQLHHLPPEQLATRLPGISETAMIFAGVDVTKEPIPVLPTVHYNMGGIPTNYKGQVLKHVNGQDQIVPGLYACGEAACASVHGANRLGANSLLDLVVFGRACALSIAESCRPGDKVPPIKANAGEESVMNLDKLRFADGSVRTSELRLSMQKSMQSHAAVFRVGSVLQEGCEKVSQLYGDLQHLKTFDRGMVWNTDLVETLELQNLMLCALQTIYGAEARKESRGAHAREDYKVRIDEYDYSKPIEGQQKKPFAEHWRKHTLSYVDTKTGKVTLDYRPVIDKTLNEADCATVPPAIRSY
T1 sequence (P21913 31-282): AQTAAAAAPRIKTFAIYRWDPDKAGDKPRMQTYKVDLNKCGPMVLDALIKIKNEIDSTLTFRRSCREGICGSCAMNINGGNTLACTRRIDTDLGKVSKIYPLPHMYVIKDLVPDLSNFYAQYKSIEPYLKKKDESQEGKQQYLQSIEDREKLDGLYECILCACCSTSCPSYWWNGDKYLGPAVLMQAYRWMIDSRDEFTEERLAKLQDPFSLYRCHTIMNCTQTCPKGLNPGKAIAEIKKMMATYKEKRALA
T1 sequence (Q641Z9 1-169): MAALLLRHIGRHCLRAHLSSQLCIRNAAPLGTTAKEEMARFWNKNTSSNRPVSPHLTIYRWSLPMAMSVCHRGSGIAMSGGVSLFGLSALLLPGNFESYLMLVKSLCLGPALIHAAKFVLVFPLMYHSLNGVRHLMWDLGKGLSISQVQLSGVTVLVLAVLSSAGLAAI
T1 sequence (Q6PCT8 57-159): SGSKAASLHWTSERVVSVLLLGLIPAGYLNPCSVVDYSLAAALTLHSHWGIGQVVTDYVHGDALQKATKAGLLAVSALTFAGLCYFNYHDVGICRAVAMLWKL
Method in brief: (§1)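 Kinase inhibitors were preincubated 15 min with submitochondrial particles (1 mg/ml) before complex activities were measured. RCC I was the rotenone-sensitive portion (activity without minus with rotenone). RCC I/V was read at 340 nm and RCC II at 600 nm every 1 min for 6 min. RCC III and IV were read at 550 nm every 10 s for 2 min. Activities are normalized to DMSO controls set as 1.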

[2] = cited from earlier work
[3] = test system: RCC V; experiment: RCC V activity in submitochondrial particles; assay type: biochemical, rat; conditions: 5XCmax; relative to DMSO treated samples; note: key: 0 indicates that the drug had no effects (negative)
Method in brief: as §1

[4] = test system: RCC IV; experiment: RCC IV activity in submitochondrial particles; assay type: biochemical, rat; set-up: key to RCC IV at 50XCmax / RCC IV at 100XCmax: activity relative to DMSO-treated controls (control set as 1 = 100%); conditions: 50XCmax; relative to DMSO treated samples; in %
Method in brief: as §1

[5] = test system: isolated rat liver mitochondria; experiment: Mitochondrial ROS production (CM-H2DCFDA); conditions: DMSO treated samples set as 1
[6] = test system: isolated rat liver mitochondria; experiment: Mitochondrial swelling (absorbance at 535 nm); assay type: biochemical; conditions: difference in signal between KI and DMSO treated samples at the end of experiments; for Swelling 5XCmax: key: 0 indicates that the drug had no effects (negative)
[7] = test system: isolated rat liver mitochondria; experiment: Mitochondrial inner membrane potential (MMP), Rhodamine 123; assay type: biochemical; conditions: difference in signal between KI and DMSO treated samples at the end of experiments
Excerpt: Fig. 3 KI effects on mitochondrial inner membrane potential (MMP). […] In a, c, data are means and standard derivations from three separate experiments. *p < 0.05 as compared to DMSO-treated samples at the end of experiments. In b, data are means of two independent experiments

[8] = test system: RCC I; experiment: RCC I activity in submitochondrial particles; assay type: biochemical, rat; set-up: key to RCC I at 10XCmax / RCC I at 100XCmax / RCC I at 50XCmax / RCC I at 30XCmax / RCC I at 20XCmax: activity relative to DMSO-treated controls (control set as 1 = 100%); conditions: 10XCmax; relative to DMSO treated samples
Method in brief: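 Abs 340 nm (I/V) or 600 nm (II), 1-min reads × 6 min; 550 nm (III, IV), 10-s reads × 2 min. RCC I = rotenone-free minus rotenone rate. DMSO control = 1.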

[9] = test system: isolated rat liver mitochondria; experiment: Mitochondrial oxygen consumption (glutamate/malate or succinate driven, state 4 and state 3); assay type: biochemical; conditions: DMSO treated samples set as 1; for State 3 respiration driven by succinate at 10XCmax: key: 0 indicates that the drug had no effects (negative); for State 3 respiration driven by succinate at 1XCmax: key: 0 indicates that the drug had no effects (negative)
Method in brief: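 Rat liver mitochondria (1 mg/ml protein) exposed 5 min to kinase inhibitors in 0.1% DMSO, then O2 consumption measured by Clark-type electrode with glutamate/malate or succinate (state 4), ADP added after 3 min (state 3). Rates normalized to 0.1% DMSO controls set to 1.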

CCCS(=O)(=O)Nc1ccc(F)c(C(=O)c2c[nH]c3ncc(-c4ccc(Cl)cc4)cc23)c1F [Vemurafenib]
W&P: hepatic impairment/ALT monitoring: labeling for DILI ([2]; W&P warnings and precautions, BBW black box warnings, ref FDA product labeling)
W&P: functional hepatic impairment: Labeling for DILI ([2]; BBW: black box warning, W&P: Warnings and Precautions, ref product labeling)
1: DILI potential (based on labeling) ([2]; 1 = DILI positive, 0 = negative, ref product labeling) | DILI potential (based on labeling) ([2]; ref FDA product labeling)
0: RCC II at 1.0XCmax ([1]; 1.0XCmax) | RCC II at 2.5XCmax ([1]; 2.5XCmax) | RCC II at 5XCmax ([1]; 5XCmax) | RCC II at 10XCmax ([1]; 10XCmax) | RCC II at 20XCmax ([1]; 20XCmax) | RCC II at 30XCmax ([1]; 30XCmax) | RCC II at 50XCmax ([1]; 50XCmax) | RCC II at 100XCmax ([1]; 100XCmax) | RCC V at 5XCmax [3] | RCC IV at 50XCmax [4] | ROS measured by CM-H2DCFDA at 1XCmax ([5]; 1XCmax) | ROS measured by CM-H2DCFDA at 2.5XCmax ([5]; 2.5XCmax) | ROS measured by CM-H2DCFDA at 5XCmax ([5]; 5XCmax) | ROS measured by CM-H2DCFDA at 10XCmax ([5]; 10XCmax) | ROS measured by CM-H2DCFDA at 20XCmax ([5]; 20XCmax) | ROS measured by CM-H2DCFDA at 30XCmax ([5]; 30XCmax) | ROS measured by CM-H2DCFDA at 50XCmax ([5]; 50XCmax) | ROS measured by CM-H2DCFDA at 100XCmax ([5]; 100XCmax) | Swelling 1XCmax ([6]; 1XCmax) | Swelling 2.5XCmax ([6]; 2.5XCmax) | Swelling 5XCmax ([6]; 5XCmax) | Swelling 10XCmax ([6]; 10XCmax) | Swelling 20XCmax ([6]; 20XCmax) | Swelling 30XCmax ([6]; 30XCmax) | Swelling 50XCmax ([6]; 50XCmax) | Swelling 100XCmax ([6]; 100XCmax) | MMP measured by Rhodamine 123 at 1XCmax ([7]; 1XCmax) | MMP measured by Rhodamine 123 at 2.5XCmax ([7]; 2.5XCmax) | MMP measured by Rhodamine 123 at 5XCmax ([7]; 5XCmax) | MMP measured by Rhodamine 123 at 10XCmax ([7]; 10XCmax) | MMP measured by Rhodamine 123 at 20XCmax ([7]; 20XCmax) | MMP measured by Rhodamine 123 at 30XCmax ([7]; 30XCmax) | MMP measured by Rhodamine 123 at 50XCmax ([7]; 50XCmax) | MMP measured by Rhodamine 123 at 100XCmax ([7]; 100XCmax) | RCC I at 10XCmax [8] | State 3 respiration driven by glutamate/malate at 1XCmax ([9]; 1XCmax) | State 3 respiration driven by succinate at 1XCmax ([9]; 1XCmax) | State 4 respiration driven by glutamate/malate at 1XCmax ([9]; 1XCmax) | State 4 respiration driven by succinate at 1XCmax ([9]; 1XCmax) | State 3 respiration driven by glutamate/malate at 2.5XCmax ([9]; 2.5XCmax) | State 3 respiration driven by succinate at 2.5XCmax ([9]; 2.5XCmax) | State 4 respiration driven by glutamate/malate at 2.5XCmax ([9]; 2.5XCmax) | State 4 respiration driven by succinate at 2.5XCmax ([9]; 2.5XCmax) | State 3 respiration driven by glutamate/malate at 5XCmax ([9]; 5XCmax) | State 3 respiration driven by succinate at 5XCmax ([9]; 5XCmax) | State 4 respiration driven by glutamate/malate at 5XCmax ([9]; 5XCmax) | State 4 respiration driven by succinate at 5XCmax ([9]; 5XCmax) | State 3 respiration driven by glutamate/malate at 10XCmax ([9]; 10XCmax) | State 3 respiration driven by succinate at 10XCmax ([9]; 10XCmax) | State 4 respiration driven by glutamate/malate at 10XCmax ([9]; 10XCmax) | State 4 respiration driven by succinate at 10XCmax ([9]; 10XCmax) | State 3 respiration driven by glutamate/malate at 20XCmax ([9]; 20XCmax) | State 3 respiration driven by succinate at 20XCmax ([9]; 20XCmax) | State 4 respiration driven by glutamate/malate at 20XCmax ([9]; 20XCmax) | State 4 respiration driven by succinate at 20XCmax ([9]; 20XCmax) | State 3 respiration driven by glutamate/malate at 30XCmax ([9]; 30XCmax) | State 3 respiration driven by succinate at 30XCmax ([9]; 30XCmax) | State 4 respiration driven by glutamate/malate at 30XCmax ([9]; 30XCmax) | State 4 respiration driven by succinate at 30XCmax ([9]; 30XCmax) | State 3 respiration driven by glutamate/malate at 50XCmax ([9]; 50XCmax) | State 3 respiration driven by succinate at 50XCmax ([9]; 50XCmax) | State 4 respiration driven by glutamate/malate at 50XCmax ([9]; 50XCmax) | State 4 respiration driven by succinate at 50XCmax ([9]; 50XCmax) | State 3 respiration driven by glutamate/malate at 100XCmax ([9]; 100XCmax) | State 3 respiration driven by succinate at 100XCmax ([9]; 100XCmax) | State 4 respiration driven by glutamate/malate at 100XCmax ([9]; 100XCmax) | State 4 respiration driven by succinate at 100XCmax ([9]; 100XCmax)
